These results are taken from patent publication US5914339A, “Substituted 1,3-benzodioxoles” (American Home Products Corporation, priority 1997, dated 1999).

For the assay, the target named is human β2 adrenergic receptor (Homo sapiens, UniProt P07550). Briefly: cell-based. As to conditions: for activation at 0.01 µM: 10 min, read-out: β2: % of isoproterenol activity (increase in cAMP). Here is the method:
The activity of the test compounds on human β-adrenergic receptors was determined with Chinese hamster ovary (CHO) cells transfected with human β2, or β1 adrenergic receptors. Agonist activity is indicated by increased cAMP levels in the CHO cells. Selectivity of the test compounds for the β3 receptor was assessed by comparison with results in β2 and β1 adrenergic receptor transfected cells.
1). Chinese hamster ovary (CHO) cells transfected with human β2, or β1 adrenergic receptors were used in the assay.
2). Cells were grown to confluent conditions in 24 well plates.
3). Drugs were dissolved in DMSO at a concentration of 10 μM.
4). Cells were incubated with drug at 10 nM concentration for 10 min at 37° C.
5). Cell cAMP concentrations were assayed using a scintillation proximity assay kit from Amersham Corp., Chicago, Ill.
6). Activities for the test compounds are expressed as a percentage of the isoproterenol response.
Production of the CHO cells transfected with human β2, or β1 adrenergic receptors, and compound test procedures utilizing the CHO cells, are described by Emorine et al. in their article "Molecular Characterization of the Human Beta3 -Adrenergic Receptor", Science 1989, 245(8), 1118-1121 and by Muzzin et al. in the article "An Adipose Tissue-Specific Beta3 -Adrenergic Receptor", J. Biol. Chem.1991, 266, 24053-24058.
^a Human β receptors expressed in Chinese hamster ovary cells,
compounds tested at 10 nM, results expressed as % of isoproterenol
activity (increase in cAMP) at 10 μM. EC50 (μM) values
determined for selected compounds.

Setting [1] is: compounds tested at 10 nM, isoproterenol at 10 μM, CHO cells, 10 min at 37° C.

Where a name gives a salt, the structure may show the parent alone. Read-outs that look alike come from different tables or passages of the source.

A word on the EC50: it is the midpoint of the concentration-response curve. A high value points to a need for much substance.

human β2 adrenergic receptor, sequence (P07550 whole entry): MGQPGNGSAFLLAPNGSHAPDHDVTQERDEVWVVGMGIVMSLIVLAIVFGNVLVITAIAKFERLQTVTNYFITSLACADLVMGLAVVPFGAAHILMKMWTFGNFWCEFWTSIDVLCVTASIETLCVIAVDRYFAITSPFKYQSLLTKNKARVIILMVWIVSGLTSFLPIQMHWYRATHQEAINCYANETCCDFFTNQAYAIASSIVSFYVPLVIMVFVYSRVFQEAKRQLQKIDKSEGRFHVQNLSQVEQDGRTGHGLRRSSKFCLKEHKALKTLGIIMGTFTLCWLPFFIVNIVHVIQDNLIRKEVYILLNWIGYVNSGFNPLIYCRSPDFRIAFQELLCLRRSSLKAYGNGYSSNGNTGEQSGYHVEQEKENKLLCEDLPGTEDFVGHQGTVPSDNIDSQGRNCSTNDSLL

Consider `CC(Cc1ccc2c(c1)OC(C(=O)OC(C)OC(=O)CC(C)(C)C)(C(=O)OC(C)OC(=O)CC(C)(C)C)O2)NCC(O)c1cccc(Cl)c1` (stereo not drawn) [Example 54], for which the activation at 0.01 µM under setting [1] worked out at 7%.
On the same count and under the same terms, with `CC(Cc1ccc2c(c1)OC(C(=O)OCOC(=O)CCC1CCCC1)(C(=O)OCOC(=O)CCC1CCCC1)O2)NCC(O)c1cccc(Cl)c1` (stereo not drawn) [Example 55, 5-{2-[2-(3-Chloro-phenyl)-2-hydroxy-ethylamino]propyl}benzo[1,3]dioxole-2,2-dicarboxylic acid bis-(3-cyclopentyl-propionyloxymethyl) ester] the figure was 0%; with `CC(Cc1ccc2c(c1)OC(C(=O)OCOC(=O)c1ccccc1)(C(=O)OCOC(=O)c1ccccc1)O2)NCC(O)c1cccc(Cl)c1` (stereo not drawn) [Example 56, 5-{2-[2-(3-Chloro-phenyl)-2-hydroxy-ethylamino]propyl}benzo[1,3]dioxole-2,2-dicarboxylic acid bis-benzoyloxymethyl ester], 8%; with `CC(Cc1ccc2c(c1)OC(C(=O)OC(C)OC(=O)c1ccccc1)(C(=O)OC(C)OC(=O)c1ccccc1)O2)NCC(O)c1cccc(Cl)c1` (stereo not drawn) [Example 57, 5-{2-[2-(3-Chloro-phenyl)-2-hydroxyethylamino]propyl}benzo[1,3] dioxole-2,2-dicarboxylic acid bis-(benzoyloxy-ethyl) ester], 0%.
Turning to `CCC(C)(C)C(=O)OCOC(=O)C1(C(=O)OCOC(=O)C(C)(C)CC)Oc2ccc(CC(C)NCC(O)c3cccc(Cl)c3)cc2O1` (stereo not drawn) [Example 58, 5-{2-[2-(3-Chloro-phenyl)-2-hydroxyethylamino]propyl}benzo[1,3] dioxole-2,2-dicarboxylic acid bis-(2,2-dimethyl-butyryloxymethyl) ester], under setting [1], the activation at 0.01 µM is 8%.
On to `CC(OC(=O)OC1CCCCC1)OC(=O)C1(C(=O)OC(C)OC(=O)OC2CCCCC2)Oc2ccc(C[C@@H](C)NC[C@H](O)c3cccc(Cl)c3)cc2O1` (stereo partly drawn) [Example 59, 5-{(2R)-2-[(2R)-2-(3-Chloro-phenyl)-2-hydroxy-ethylamino]-propyl}-benzo[1,3]dioxole-2,2-dicarboxylic acid bis-[1-(cyclohexyloxycarbonyloxy)-ethyl] ester], for which the activation at 0.01 µM under setting [1] amounted to 10%.
Regarding `CC(Cc1ccc2c(c1)OC(C(N)=O)(C(N)=O)O2)NCC(O)c1cccc(Cl)c1` (stereo not drawn) [Example 60, 5-{2-[2-(3-Chloro-phenyl)-2-hydroxy-ethylamino]-propyl}benzo[1,3]dioxole-2,2-dicarboxylic acid bis-amide], for the setting “CHO”, the activation at 0.01 µM worked out at 3%.
Turning to `CC(Cc1ccc2c(c1)OC(C(=O)O)(C(=O)O)O2)N1COC(c2cccc(Cl)c2)C1` (stereo not drawn) [Example 66], the activation at 0.01 µM under setting [1] was determined as 3%.
On to `CCN(CC)C(=O)COC(=O)C1(C(=O)OCC(=O)N(CC)CC)Oc2ccc(C[C@@H](C)NC[C@H](O)c3cccc(Cl)c3)cc2O1` [Example 68, 5-{(2R)-2-[(2R)-2-(3-Chloro-phenyl)-2-hydroxy-ethylamino]-propyl}-benzo[1,3]dioxole-2,2-dicarboxylic acid bis-diethylcarbamoylmethyl ester], for which, under setting [1], the activation at 0.01 µM was determined as 5%.
`CC(Cc1ccc2c(c1)OC(C(=O)O)(C(=O)OCC1CC1)O2)NCC(O)c1cccc(Cl)c1` (stereo not drawn) [Example 69, 5-{2-[2-(3-Chloro-phenyl)-2-hydroxy-ethylamino]-propyl}-benzo[1,3]dioxole-2,2-dicarboxylic acid cyclopropylmethyl ester] displayed an EC50 of 79 nM.
On to `CC(Cc1ccc2c(c1)OC(C(=O)O)(C(=O)OCCc1ccsc1)O2)NCC(O)c1cccc(Cl)c1` (stereo not drawn) [Example 72, 5-{2-[2-(3-Chloro-phenyl)-2-hydroxy-ethylamino]-propyl}-benzo[1,3]dioxole-2,2-dicarboxylic acid 2-(3-Thienyl)ethyl ester], for which the activation at 0.01 µM under setting [1] was 13%.
Consider `CC(Cc1ccc2c(c1)OC(C(=O)OCCCl)(C(=O)OCCCl)O2)NCC(O)c1cccc(Cl)c1` (stereo not drawn) [Example 73, 5-{2-[2-(3-Chloro-phenyl)-2-hydroxy-ethylamino]-propyl}-benzo[1,3]dioxole-2,2-dicarboxylic acid bis 2-(Chloro)ethyl ester], for which the activation at 0.01 µM under setting [1] is 0%.
On the same count and under the same terms, with `CCC(CC)COC(=O)C1(C(=O)OCC(CC)CC)Oc2ccc(C[C@@H](C)NC[C@H](O)c3cccc(Cl)c3)cc2O1` [Example 74, 5-{(2R)-2-[(2R)-2-(3-Chloro-phenyl)-2-hydroxy-ethylamino]-propyl}-benzo[1,3]dioxole-2,2-dicarboxylic acid bis-(2-ethylbutyl) ester] the figure was 0%; with `C[C@H](Cc1ccc2c(c1)OC(C(=O)OCC13CC4CC(CC(C4)C1)C3)(C(=O)OCC13CC4CC(CC(C4)C1)C3)O2)NC[C@H](O)c1cccc(Cl)c1` (stereo partly drawn) [Example 77, 5-{(2R)-2-[(2R)-2-(3-Chloro-phenyl)-2-hydroxy-ethylamino]-propyl}-benzo[1,3]dioxole-2,2-dicarboxylic acid bis-adamantan-1-ylmethyl ester], 5%; with `C[C@H](Cc1ccc2c(c1)OC(C(=O)O)(C(=O)OCC13CC4CC(CC(C4)C1)C3)O2)NC[C@H](O)c1cccc(Cl)c1` (stereo partly drawn) [Example 79, 5-{(2R)-2-[(2R)-2-(3-Chloro-phenyl)-2-hydroxy-ethylamino]-propyl}-benzo[1,3]dioxole-2,2-dicarboxylic acid adamantan-1-ylmethyl ester], 0%.
For the compound `C[C@H](Cc1ccc2c(c1)OC(C(=O)OCC1CCCCO1)(C(=O)OCC1CCCCO1)O2)NC[C@H](O)c1cccc(Cl)c1` (stereo partly drawn) [Example 90, 5-{(2R)-2-[(2R)-2-(3-Chloro-phenyl)-2-hydroxy-ethylamino]-propyl}-benzo[1,3]dioxole-2,2-dicarboxylic aicd bis-(tetrahydro-pyran-2-ylmethyl) ester], the activation at 0.01 µM under setting [1] turned out to be 7%.
`C[C@H](Cc1ccc2c(c1)OC(C(=O)OCC1CCCO1)(C(=O)OCC1CCCO1)O2)NC[C@H](O)c1cccc(Cl)c1` (stereo partly drawn) [Example 91, 5-{(2R)-2-[(2R)-2-(3-Chloro-phenyl)-2-hydroxy-ethylamino]-propyl}-benzo[1,3]dioxole-2,2-dicarboxylic aicd bis-(tetrahydro-furan-2-ylmethyl) ester]: the activation at 0.01 µM under setting [1] was 7%.
Consider `CCOCCOC(=O)C1(C(=O)O)Oc2ccc(C[C@@H](C)NC[C@H](O)c3cccc(Cl)c3)cc2O1` (stereo partly drawn) [Example 95, 5-{(2R)-2-[(2R)-2-(3-Chloro-phenyl)-2-hydroxy-ethylamino]-propyl}-benzo[1,3]dioxole-2,2-dicarboxylic acid (2-ethoxy-ethyl) ester], for which the activation at 0.01 µM (CHO) worked out at 0%.
Still for that read-out and setting: with `C[C@H](Cc1ccc2c(c1)OC(C(=O)OCCc1cccc(Br)c1)(C(=O)OCCc1cccc(Br)c1)O2)NC[C@H](O)c1cccc(Cl)c1` [Example 96, 5-{(2R)-2-[(2R)-2-(3-Chloro-phenyl)-2-hydroxy-ethylamino]-propyl}-benzo[1,3]dioxole-2,2-dicarboxylic acid bis-[2-(3-bromo-phenyl)-ethyl]ester hydrochloride salt] the figure was 1%; with `Cc1cccc(CCOC(=O)C2(C(=O)OCCc3cccc(C)c3)Oc3ccc(C[C@@H](C)NC[C@H](O)c4cccc(Cl)c4)cc3O2)c1` [Example 97, 5-{(2R)-2-[(2R)-2-(3-Chloro-phenyl)-2-hydroxy-ethylamino]-propyl}-benzo[1,3]dioxole-2,2-dicarboxylic acid bis-(2-m-tolyl-ethyl) ester hydrochloride salt], 4%.
Consider `C=CCOC(=O)C1(C(=O)OCC=C)Oc2ccc(C[C@@H](C)NC[C@H](O)c3cccc(Cl)c3)cc2O1` [Example 98, 5-{(2R)-2-[(2R)-2-(3-Chloro-phenyl)-2-hydroxy-ethylamino]-propyl}-benzo[1,3]dioxole-2,2-dicarboxylic acid diallyl ester], for which the activation at 0.01 µM under setting [1] turned out to be 7%.
Same read-out and setting: the figure for `C[C@H](Cc1ccc2c(c1)OC(C(=O)OCC=Cc1ccccc1)(C(=O)OCC=Cc1ccccc1)O2)NC[C@H](O)c1cccc(Cl)c1` (stereo partly drawn) [Example 99, 5-{(2R)-2-[(2R)-2-(3-Chloro-phenyl)-2-hydroxy-ethylamino]-propyl}-benzo[1,3]dioxole-2,2-dicarboxylic acid bis-(3-phenyl-allyl)ester] is 16%; for `C[C@H](Cc1ccc2c(c1)OC(C(=O)OC1CCCCCCC1)(C(=O)OC1CCCCCCC1)O2)NC[C@H](O)c1cccc(Cl)c1` [Example 100, 5-{(2R)-2-[(2R)-2-(3-Chloro-phenyl)-2-hydroxy-ethylamino]-propyl}-benzo[1,3]dioxole-2,2-dicarboxylic acid dicyclooctyl ester] it is 2%; for `C[C@H](Cc1ccc2c(c1)OC(C(=O)OC/C=C\COCc1ccccc1)(C(=O)OC/C=C\COCc1ccccc1)O2)NC[C@H](O)c1cccc(Cl)c1` [Example 101, 5-{(2R)-2-[(2R)-2-(3-Chloro-phenyl)-2-hydroxy-ethylamino]-propyl}-benzo[1,3]dioxole-2,2-dicarboxylic acid bis-(4-benzyloxy-but-2-enyl)ester] it is 3%.
